These results are taken from US10377753B2, “Substituted 4-azaindoles and their use as GluN2B receptor modulators” (Janssen Pharmaceutica NV, priority 2015, dated 2019).

Counter-ions that a name gives are not always drawn.

In this experiment the target is cloned human NR1/NR2B ion channels (Homo sapiens (Human), UniProt Q05586+Q13224). Put plainly: HNR2BC: effects of test articles on cloned human NR1/NR2B ion channels expressed in mammalian cells (FLIPR calcium flux). Type of experiment: cell-based. To be noted: cloned human NR1/NR2B, Table 5. The method in brief: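 In a stable Tet-On-induced cell line expressing human GluN1/GluN2B, Calcium 5-loaded cells were preincubated 5 min with compound, then stimulated 5 min with glutamate at ~EC80 plus 10 μM glycine, in pH 7.4 HEPES buffer. FLIPR calcium fluorescence was normalized to control wells.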
cloned human NR1/NR2B ion channels, sequence (Q13224 27-1484, other chains not shown): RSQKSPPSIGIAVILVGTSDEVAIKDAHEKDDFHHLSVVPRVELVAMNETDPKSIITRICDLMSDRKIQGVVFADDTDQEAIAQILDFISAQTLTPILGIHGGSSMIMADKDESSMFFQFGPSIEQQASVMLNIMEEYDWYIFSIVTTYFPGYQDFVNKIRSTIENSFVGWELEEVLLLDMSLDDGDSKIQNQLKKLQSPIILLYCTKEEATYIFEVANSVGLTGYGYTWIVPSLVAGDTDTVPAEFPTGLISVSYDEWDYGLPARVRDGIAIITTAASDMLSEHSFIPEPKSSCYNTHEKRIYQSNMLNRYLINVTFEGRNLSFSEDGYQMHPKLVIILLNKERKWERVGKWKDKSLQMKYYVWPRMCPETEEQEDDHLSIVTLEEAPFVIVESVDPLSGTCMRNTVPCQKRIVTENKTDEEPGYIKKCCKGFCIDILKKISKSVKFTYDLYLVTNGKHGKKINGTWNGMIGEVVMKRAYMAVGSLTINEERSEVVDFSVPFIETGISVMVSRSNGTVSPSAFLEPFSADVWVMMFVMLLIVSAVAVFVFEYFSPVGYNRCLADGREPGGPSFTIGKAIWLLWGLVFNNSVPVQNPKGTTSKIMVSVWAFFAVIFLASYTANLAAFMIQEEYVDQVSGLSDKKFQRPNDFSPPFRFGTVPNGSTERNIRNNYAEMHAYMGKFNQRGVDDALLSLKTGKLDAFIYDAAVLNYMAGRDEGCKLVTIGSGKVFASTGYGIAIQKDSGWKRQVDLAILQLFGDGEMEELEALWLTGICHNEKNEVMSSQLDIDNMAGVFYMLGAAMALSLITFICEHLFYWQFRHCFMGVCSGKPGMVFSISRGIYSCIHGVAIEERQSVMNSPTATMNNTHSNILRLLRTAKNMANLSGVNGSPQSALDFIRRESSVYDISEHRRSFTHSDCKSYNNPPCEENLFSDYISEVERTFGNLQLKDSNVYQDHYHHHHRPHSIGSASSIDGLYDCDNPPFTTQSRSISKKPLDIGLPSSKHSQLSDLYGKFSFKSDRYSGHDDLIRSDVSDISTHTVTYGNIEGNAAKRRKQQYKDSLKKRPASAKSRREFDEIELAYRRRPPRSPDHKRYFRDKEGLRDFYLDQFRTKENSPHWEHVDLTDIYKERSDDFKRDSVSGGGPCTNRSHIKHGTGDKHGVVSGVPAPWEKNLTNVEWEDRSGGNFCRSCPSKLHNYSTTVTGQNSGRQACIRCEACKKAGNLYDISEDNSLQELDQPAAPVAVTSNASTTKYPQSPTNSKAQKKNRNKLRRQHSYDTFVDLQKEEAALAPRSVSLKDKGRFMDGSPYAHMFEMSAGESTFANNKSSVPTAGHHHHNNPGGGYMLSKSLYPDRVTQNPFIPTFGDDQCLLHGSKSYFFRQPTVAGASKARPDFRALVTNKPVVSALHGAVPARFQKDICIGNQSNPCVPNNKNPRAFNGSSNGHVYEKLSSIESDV
(Calcium flux is commonly read through the fluorescence of an indicator in the cells.)
The IC50 is the concentration at which inhibition is half-maximal. As for `Cc1cc(-c2cnc3ccn(CCC(C)C)c3c2)ccc1F` [Example 171, 6-(4-Fluoro-3-methyl-phenyl)-1-isopentyl-pyrrolo[3,2-b]pyridine trifluoroacetate salt], the IC50 was 200 nM. As for `Cc1cc(-c2cnc3ccn(Cc4cccnc4)c3c2)ccc1F` [Example 172, 6-(4-Fluoro-3-methyl-phenyl)-1-(3-pyridylmethyl)pyrrolo[3,2-b]pyridine trifluoroacetate salt], the IC50 is 794 nM. Turning to `Cc1cc(-c2cnc3ccn(CC4CC4)c3c2)ccc1F` [Example 174, 1-(Cyclopropylmethyl)-6-(4-fluoro-3-methyl-phenyl)pyrrolo[3,2-b]pyridine trifluoroacetate salt], the IC50 was 158 nM. As to `Cc1cc(-c2cnc3c(Cl)cn(CC(=O)NC4CC4)c3c2)ccc1F` [Example 176, 2-[3-Chloro-6-(4-fluoro-3-methyl-phenyl)pyrrolo[3,2-b]pyridin-1-yl]-N-cyclopropyl-acetamide trifluoroacetate salt], the IC50 was 31.6 nM.

Take `Cc1cc(-c2cnc3ccn(Cc4ccncc4)c3c2)ccc1F` [Example 179, 6-(4-Fluoro-3-methyl-phenyl)-1-(4-pyridylmethyl)pyrrolo[3,2-b]pyridine trifluoroacetate salt]: the IC50 is 50.1 nM. With `Cc1cc(-c2cnc3ccn(CCn4cccn4)c3c2)ccc1F` [Example 181, 6-(4-Fluoro-3-methyl-phenyl)-1-(2-pyrazol-1-ylethyl)pyrrolo[3,2-b]pyridine trifluoroacetate salt], the concentration for half-maximal inhibition (IC50) is 794 nM. With `O=C(Cn1cc(F)c2ncc(-c3ccc(Cl)s3)cc21)N1CCC1` [Example 182, 1-(Azetidin-1-yl)-2-[6-(5-chloro-2-thienyl)-3-fluoro-pyrrolo[3,2-b]pyridin-1-yl]ethanone], the IC50 was 3980 nM.

On to `Cc1cc(-c2cnc3ccn(Cc4ncccn4)c3c2)ccc1F` [Example 183, 6-(4-Fluoro-3-methyl-phenyl)-1-(pyrimidin-2-ylmethyl)pyrrolo[3,2-b]pyridine trifluoroacetate salt], for which the IC50 is 31.6 nM. Turning to `Cc1cc(-c2cnc3c(F)cn(CC(=O)N4CC(F)(F)C4)c3c2)ccc1F` [Example 185, 1-(3,3-Difluoroazetidin-1-yl)-2-[3-fluoro-6-(4-fluoro-3-methyl-phenyl)pyrrolo[3,2-b]pyridin-1-yl]ethanone], the IC50 was 100 nM. In the case of `Cc1cc(-c2cnc3ccn(CC(=O)C4CC4)c3c2)ccc1F` [Example 186, 1-Cyclopropyl-2-[6-(4-fluoro-3-methyl-phenyl)pyrrolo[3,2-b]pyridin-1-yl]ethanone trifluoroacetate salt], the IC50 is 39.8 nM.

Take `Cc1cc(-c2cnc3ccn(CC(=O)C(C)C)c3c2)ccc1F` [Example 187, 1-[6-(4-Fluoro-3-methyl-phenyl)pyrrolo[3,2-b]pyridin-1-yl]-3-methyl-butan-2-one trifluoroacetate salt]: the IC50 is 50.1 nM. For the compound `Cc1cc(-c2cnc3ccn(CC(=O)N4CCC(O)CC4)c3c2)ccc1F` [Example 188, 2-[6-(4-Fluoro-3-methyl-phenyl)pyrrolo[3,2-b]pyridin-1-yl]-1-(4-hydroxy-1-piperidyl)ethanone trifluoroacetate salt], the IC50 was 50.1 nM. Then `COC1CCN(C(=O)Cn2ccc3ncc(-c4ccc(F)c(C)c4)cc32)CC1` [Example 190, 2-[6-(4-Fluoro-3-methyl-phenyl)pyrrolo[3,2-b]pyridin-1-yl]-1-(4-methoxy-1-piperidyl)ethanone trifluoroacetate salt], with 251 nM; and `Cc1cc(-c2cnc3ccn(CC(=O)N4CCC(F)CC4)c3c2)ccc1F` [Example 191, 2-[6-(4-Fluoro-3-methyl-phenyl)pyrrolo[3,2-b]pyridin-1-yl]-1-(4-fluoro-1-piperidyl)ethanone trifluoroacetate salt], with 316 nM; and `Cc1cc(-c2cnc3ccn(CC(=O)N4CCC(CF)CC4)c3c2)ccc1F` [Example 192, 2-[6-(4-Fluoro-3-methyl-phenyl)pyrrolo[3,2-b]pyridin-1-yl]-1-[4-(fluoromethyl)-1-piperidyl]ethanone trifluoroacetate salt], with 79.4 nM. Take `Cc1cc(-c2cnc3ccn(CC(=O)N4CCOC(C)(C)C4)c3c2)ccc1F` [Example 197, 1-(2,2-Dimethylmorpholin-4-yl)-2-[6-(4-fluoro-3-methyl-phenyl)pyrrolo[3,2-b]pyridin-1-yl]ethanone trifluoroacetate salt]: the IC50 was 1580 nM. Regarding `Cc1cc(-c2cnc3ccn(CC(=O)N4CCCC4(C)C)c3c2)ccc1F` [Example 200, 1-(2,2-Dimethylpyrrolidin-1-yl)-2-[6-(4-fluoro-3-methyl-phenyl)pyrrolo[3,2-b]pyridin-1-yl]ethanone trifluoroacetate salt], the IC50 was 251 nM. With `Cc1cc(-c2cnc3ccn(CC(=O)N4CC[C@@H](F)C4)c3c2)ccc1F` [Example 201, 2-[6-(4-Fluoro-3-methyl-phenyl)pyrrolo[3,2-b]pyridin-1-yl]-1-[(3R)-3-fluoropyrrolidin-1-yl]ethanone trifluoroacetate salt], the IC50 is 3980 nM. As for `CC1(O)CN(C(=O)Cn2ccc3ncc(-c4ccc(F)cc4)cc32)C1` [Example 202, 2-[6-(4-Fluorophenyl)pyrrolo[3,2-b]pyridin-1-yl]-1-(3-hydroxy-3-methyl-azetidin-1-yl)ethanone], the figure is 126 nM; as for `O=C(Cn1ccc2ncc(-c3ccc(F)cc3)cc21)N1CC(O)(C(F)(F)F)C1` [Example 203, 2-[6-(4-Fluorophenyl)pyrrolo[3,2-b]pyridin-1-yl]-1-[3-hydroxy-3-(trifluoromethyl)azetidin-1-yl]ethanone], 398 nM. On to `O=C(Cn1ccc2ncc(-c3ccc(F)cc3)cc21)N1CC(F)C1` [Example 204, 1-(3-Fluoroazetidin-1-yl)-2-[6-(4-fluorophenyl)pyrrolo[3,2-b]pyridin-1-yl]ethanone], for which the IC50 is 1580 nM. On to `CN(C(=O)Cn1ccc2ncc(-c3ccc(F)cc3)cc21)C1CC1` [Example 205, N-Cyclopropyl-2-[6-(4-fluorophenyl)pyrrolo[3,2-b]pyridin-1-yl]-N-methyl-acetamide], for which the IC50 is 50.1 nM. Take `O=C(Cn1ccc2ncc(-c3ccc(F)cc3)cc21)N1CC(CO)C1` [Example 206, 2-[6-(4-Fluorophenyl)pyrrolo[3,2-b]pyridin-1-yl]-1-[3-(hydroxymethyl)azetidin-1-yl]ethanone]: the IC50 is 316 nM. `COC1CN(C(=O)Cn2ccc3ncc(-c4ccc(F)cc4)cc32)C1` [Example 207, 2-[6-(4-Fluorophenyl)pyrrolo[3,2-b]pyridin-1-yl]-1-(3-methoxyazetidin-1-yl)ethanone]: the IC50 is 316 nM. With `Cc1cc(-c2cnc3ccn(CC(=O)N4CC5(CC5)C4)c3c2)ccc1F` [Example 208, 1-(5-Azaspiro[2.3]hexan-5-yl)-2-[6-(4-fluoro-3-methyl-phenyl)pyrrolo[3,2-b]pyridin-1-yl]ethanone trifluoroacetate salt], the IC50 is 316 nM. As to `Cc1cc(-c2cnc3ccn(CC(=O)N4CCC(C)(O)CC4)c3c2)ccc1F` [Example 209, 2-[6-(4-Fluoro-3-methyl-phenyl)pyrrolo[3,2-b]pyridin-1-yl]-1-(4-hydroxy-4-methyl-1-piperidyl)ethanone trifluoroacetate salt], the IC50 is 200 nM.

Turning to `O=C(Cn1ccc2ncc(-c3ccc(F)cc3)cc21)N1CC(O)C1` [Example 211, 2-[6-(4-Fluorophenyl)pyrrolo[3,2-b]pyridin-1-yl]-1-(3-hydroxyazetidine-1-yl)ethanone], the IC50 is 398 nM. As for `N#CC1CN(C(=O)Cn2ccc3ncc(-c4ccc(F)cc4)cc32)C1` [Example 212, 1-[2-[6-(4-Fluorophenyl)pyrrolo[3,2-b]pyridin-1-yl]acetyl]azetidine-3-carbonitrile], the figure is 316 nM. With `O=C(Cn1ccc2ncc(-c3ccc(F)cc3)cc21)N1CC(F)(F)C1` [Example 213, 1-(3,3-Difluoroazetidin-1-yl)-2-[6-(4-fluorophenyl)pyrrolo[3,2-b]pyridin-1-yl]ethanone], the IC50 was 631 nM. As for `CC1CN(C(=O)Cn2ccc3ncc(-c4ccc(F)cc4)cc32)C1` [Example 214, 2-[6-(4-Fluorophenyl)pyrrolo[3,2-b]pyridin-1-yl]-1-(3-methylazetidin-1-yl)ethanone], the IC50 is 100 nM. Then `CC1(C)CN(C(=O)Cn2ccc3ncc(-c4ccc(F)cc4)cc32)C1` [Example 215, 1-(3,3-Dimethylazetidin-1-yl)-2-[6-(4-fluorophenyl)pyrrolo[3,2-b]pyridin-1-yl]ethanone], with 158 nM. Take `O=C1CCN(C(=O)Cn2ccc3ncc(-c4ccc(F)cc4)cc32)C1` [Example 216, 1-[2-[6-(4-Fluorophenyl)pyrrolo[3,2-b]pyridin-1-yl]acetyl]pyrrolidin-3-one trifluoroacetate salt]: the IC50 is 1260 nM. Then `O=C(Cn1ccc2ncc(-c3ccc(F)cc3)cc21)N1CCC(F)(F)C1` [Example 217, 1-(3,3-Difluoropyrrolidin-1-yl)-2-[6-(4-fluorophenyl)pyrrolo[3,2-b]pyridin-1-yl]ethanone], with 316 nM; and `Cc1cccc(-c2cnc3ccn(CC(=O)C4CC4)c3c2)c1` [Example 219, 1-Cyclopropyl-2-[6-(m-tolyl)pyrrolo[3,2-b]pyridin-1-yl]ethanone], with 501 nM. As to `O=C(Cn1ccc2ncc(-c3ccccc3)cc21)C1CC1` [Example 220, 1-Cyclopropyl-2-(6-phenylpyrrolo[3,2-b]pyridin-1-yl)ethanone], the IC50 is 50.1 nM. As to `O=C(Cn1ccc2ncc(-c3cccc(F)c3)cc21)C1CC1` [Example 221, 1-Cyclopropyl-2-[6-(3-fluorophenyl)pyrrolo[3,2-b]pyridin-1-yl]ethanone], the 50% inhibitory concentration (IC50) was 79.4 nM.

Turning to `O=C(Cn1ccc2ncc(-c3ccc(F)cc3)cc21)C1CC1` [Example 222, 1-Cyclopropyl-2-[6-(4-fluorophenyl)pyrrolo[3,2-b]pyridin-1-yl]ethanone], the IC50 was 79.4 nM.
